Experimental data as given in ChEMBL document CHEMBL4715829, “Heterodimeric Rifampicin-Tobramycin conjugates break intrinsic resistance of Pseudomonas aeruginosa to doxycycline and chloramphenicol in vitro and in a Galleria mellonella in vivo model” (Eur J Med Chem, 2019).

Columns and labels:
[1] = test system: Pseudomonas aeruginosa; assay: Antibacterial activity against Pseudomonas aeruginosa 260-97103 infected in Galleria mellonella larvae assessed as survival of larvae treated at 3 hrs post-infection in presence of chloramphenicol and measured every 6 hrs for 36 hrs; assay type: functional, organism-based; conditions: dose 75-100 mg/kg
[2] = test system: Pseudomonas aeruginosa; assay: Antibacterial activity against Pseudomonas aeruginosa 100036 assessed as fractional inhibitory concentration index incubated for 18 hrs in presence of tigecycline by broth microdilution assay; assay type: functional
[3] = test system: Pseudomonas aeruginosa; assay: Antibacterial activity against Pseudomonas aeruginosa 260-97103 infected in Galleria mellonella larvae assessed as survival of larvae at 75 mg/kg treated at 3 hrs post-infection in presence of chloramphenicol and measured after 24 hrs relative to control; assay type: functional
[4] = test system: Pseudomonas aeruginosa; assay: Antibacterial activity against Pseudomonas aeruginosa 100036 assessed as fractional inhibitory concentration index incubated for 18 hrs in presence of rifampicin by broth microdilution assay; assay type: functional
[5] = test system: Pseudomonas aeruginosa; assay: Antibacterial activity against Pseudomonas aeruginosa 101243 assessed as fractional inhibitory concentration incubated for 18 hrs in presence of minocycline by broth microdilution assay; assay type: functional
[6] = test system: Pseudomonas aeruginosa; assay: Potentiation of chloramphenicol-induced antibacterial activity against Pseudomonas aeruginosa 101243 assessed as fold change in chloramphenicol MIC at 9.8 uM incubated for 18 hrs in presence of chloramphenicol by broth microdilution assay relative to control; assay type: functional
[7] = test system: Pseudomonas aeruginosa; assay: Antibacterial activity against Pseudomonas aeruginosa 262-101856 assessed as fractional inhibitory concentration incubated for 18 hrs in presence of tigecycline by broth microdilution assay; assay type: functional
[8] = test system: Pseudomonas aeruginosa; assay: Potentiation of chloramphenicol-induced antibacterial activity against Pseudomonas aeruginosa 259-96918 assessed as fold change in chloramphenicol MIC at 9.8 uM incubated for 18 hrs in presence of chloramphenicol by broth microdilution assay relative to control; assay type: functional
[9] = test system: Pseudomonas aeruginosa; assay: Potentiation of chloramphenicol-induced antibacterial activity against Pseudomonas aeruginosa 262-101856 assessed as fold change in chloramphenicol MIC at 9.8 uM incubated for 18 hrs in presence of chloramphenicol by broth microdilution assay relative to control; assay type: functional
[10] = test system: Pseudomonas aeruginosa; assay: Potentiation of chloramphenicol-induced antibacterial activity against Pseudomonas aeruginosa PAO200 harboring mexA-mexB-oprM deletion mutant assessed as fold change in chloramphenicol MIC at <=9.8 uM incubated for 18 hrs in presence of chloramphenicol by broth microdilution assay; assay type: functional; conditions: dose microM <=9.8
[11] = test system: Pseudomonas aeruginosa; assay: Antibacterial activity against Pseudomonas aeruginosa 264-101354 assessed as fractional inhibitory concentration incubated for 18 hrs in presence of tigecycline by broth microdilution assay; assay type: functional
[12] = test system: Pseudomonas aeruginosa; assay: Potentiation of chloramphenicol-induced antibacterial activity against Pseudomonas aeruginosa 100036 assessed as fold change in chloramphenicol MIC at 9.8 uM incubated for 18 hrs in presence of chloramphenicol by broth microdilution assay relative to control; assay type: functional
[13] = test system: Escherichia coli; assay: Potentiation of doxycycline-induced antibacterial activity against Escherichia coli ATCC 25922 assessed as fold change in doxycycline MIC at 9.8 uM incubated for 18 hrs in presence of doxycycline by broth microdilution assay relative to control; assay type: functional
[14] = test system: Pseudomonas aeruginosa; assay: Potentiation of doxycycline-induced antibacterial activity against Pseudomonas aeruginosa PAO200 harboring mexA-mexB-oprM deletion mutant assessed as fold change in doxycycline MIC at <=9.8 uM incubated for 18 hrs in presence of doxycycline by broth microdilution assay; assay type: functional; conditions: dose microM <=9.8
[15] = test system: Pseudomonas aeruginosa; assay: Antibacterial activity against Pseudomonas aeruginosa 262-101856 assessed as potentiation of chloramphenicol-induced antibacterial activity by measuring chloramphenicol MIC at 9.8 uM incubated for 18 hrs in presence of chloramphenicol by broth microdilution assay (reference value: 2048 ug/ml); assay type: functional
[16] = Toxicity in Galleria mellonella larvae assessed as larval survival at 200 mg/kg measured after 96 hrs; assay type: organism-based; conditions: in vivo
[17] = test system: Pseudomonas aeruginosa; assay: Antibacterial activity against Pseudomonas aeruginosa 260-97103 assessed as potentiation of chloramphenicol-induced antibacterial activity by measuring chloramphenicol MIC at 9.8 uM incubated for 18 hrs in presence of chloramphenicol by broth microdilution assay (reference value: 128 ug/ml); assay type: functional
[18] = test system: Pseudomonas aeruginosa; assay: Antibacterial activity against Pseudomonas aeruginosa 101885 assessed as fractional inhibitory concentration incubated for 18 hrs in presence of rifampicin by broth microdilution assay; assay type: functional
[19] = test system: Pseudomonas aeruginosa; assay: Antibacterial activity against Pseudomonas aeruginosa 260-97103 infected in Galleria mellonella larvae assessed as survival of larvae at 75 mg/kg treated at 3 hrs post-infection in presence of doxycycline and measured after 24 hrs relative to control; assay type: functional
[20] = test system: Pseudomonas aeruginosa; assay: Antibacterial activity against Pseudomonas aeruginosa 259-96918 assessed as fractional inhibitory concentration index incubated for 18 hrs in presence of minocycline by broth microdilution assay; assay type: functional
[21] = test system: Pseudomonas aeruginosa; assay: Antibacterial activity against Pseudomonas aeruginosa 114228 assessed as potentiation of chloramphenicol-induced antibacterial activity by measuring chloramphenicol MIC at 7.6 uM incubated for 18 hrs in presence of chloramphenicol by broth microdilution assay (reference value: 64 ug/ml); assay type: functional
[22] = test system: Pseudomonas aeruginosa; assay: Potentiation of chloramphenicol-induced antibacterial activity against Pseudomonas aeruginosa 262-101856 assessed as fold change in chloramphenicol MIC at 7.6 uM incubated for 18 hrs in presence of chloramphenicol by broth microdilution assay relative to control; assay type: functional
[23] = test system: Pseudomonas aeruginosa; assay: Potentiation of doxycycline-induced antibacterial activity against Pseudomonas aeruginosa 100036 assessed as fold change in doxycycline MIC at 7.6 uM incubated for 18 hrs in presence of doxycycline by broth microdilution assay relative to control; assay type: functional
[24] = test system: Pseudomonas aeruginosa; assay: Potentiation of doxycycline-induced antibacterial activity against Pseudomonas aeruginosa 259-96918 assessed as fold change in doxycycline MIC at 7.6 uM incubated for 18 hrs in presence of doxycycline by broth microdilution assay relative to control; assay type: functional
[25] = test system: Klebsiella pneumoniae; assay: Potentiation of doxycycline-induced antibacterial activity against Klebsiella pneumoniae ATCC 16381 assessed as fold change in doxycycline MIC at 7.6 uM incubated for 18 hrs in presence of doxycycline by broth microdilution assay relative to control; assay type: functional
[26] = test system: Escherichia coli; assay: Potentiation of chloramphenicol-induced antibacterial activity against Escherichia coli ATCC 25922 assessed as fold change in chloramphenicol MIC at 7.6 uM incubated for 18 hrs in presence of chloramphenicol by broth microdilution assay relative to control; assay type: functional
[27] = test system: Pseudomonas aeruginosa; assay: Antibacterial activity against Pseudomonas aeruginosa 101885 assessed as potentiation of doxycycline-induced antibacterial activity by measuring doxycycline MIC at 7.6 uM incubated for 18 hrs in presence of doxycycline by broth microdilution assay (reference value: 64 ug/ml); assay type: functional
[28] = test system: Pseudomonas aeruginosa; assay: Antibacterial activity against Pseudomonas aeruginosa 114228 assessed as potentiation of doxycycline-induced antibacterial activity by measuring doxycycline MIC at 7.6 uM incubated for 18 hrs in presence of doxycycline by broth microdilution assay (reference value: 32 ug/ml); assay type: functional
[29] = test system: Pseudomonas aeruginosa; assay: Potentiation of doxycycline-induced antibacterial activity against Pseudomonas aeruginosa 91433 assessed as fold change in doxycycline MIC at 7.6 uM incubated for 18 hrs in presence of doxycycline by broth microdilution assay relative to control; assay type: functional
[30] = test system: Pseudomonas aeruginosa; assay: Antibacterial activity against Pseudomonas aeruginosa 264-101354 assessed as reduction in bacterial growth by measuring chloramphenicol MIC at 4 ug/ml incubated for 18 hrs in presence of chloramphenicol by broth microdilution assay (reference value: 4096 ug/ml); assay type: functional; conditions: dose 4 µg/ml

CO[C@H]1/C=C/O[C@@]2(C)Oc3c(C)c(O)c4c(O)c(c(/C=N/N5CCN(Cc6cn(CCCCCCO[C@@H]7[C@@H](O[C@H]8O[C@H](CO)[C@@H](O)[C@H](N)[C@H]8O)[C@H](N)C[C@H](N)[C@H]7O[C@H]7O[C@H](CN)[C@@H](O)C[C@H]7N)nn6)CC5)c(O)c4c3C2=O)NC(=O)/C(C)=C\C=C\[C@H](C)[C@H](O)[C@@H](C)[C@@H](O)[C@@H](C)[C@H](OC(C)=O)[C@@H]1C.Cl.Cl.Cl.Cl.Cl
Activity [1]: Dose-dependent effect
fractional inhibitory concentration index (FICI) [2]: 0.13
survival at 75 mg/kg [3]: 10%
fractional inhibitory concentration index (FICI) [4]: 0.31
FIC [5]: <0.063
fold change (FC) [6]: 4
FIC [7]: <0.063
fold change (FC) [8]: 4
fold change (FC) [9]: 4
fold change (FC) [10]: 16
FIC [11]: 0.063
fold change (FC) [12]: 4
fold change (FC) [13]: 0
fold change (FC) [14]: 8
MIC [15]: 128 µg/mL
survival at 96 h [16]: 97%
MIC [17]: 2 µg/mL
FIC [18]: 0.063
survival at 75 mg/kg [19]: 55%
fractional inhibitory concentration index (FICI) [20]: <0.16

CO[C@H]1/C=C/O[C@@]2(C)Oc3c(C)c(O)c4c(O)c(c(/C=N/N5CCN(Cc6cn(CCCCCCCCCCCCO[C@@H]7[C@@H](O[C@H]8O[C@H](CO)[C@@H](O)[C@H](N)[C@H]8O)[C@H](N)C[C@H](N)[C@H]7O[C@H]7O[C@H](CN)[C@@H](O)C[C@H]7N)nn6)CC5)c(O)c4c3C2=O)NC(=O)/C(C)=C\C=C\[C@H](C)[C@H](O)[C@@H](C)[C@@H](O)[C@@H](C)[C@H](OC(C)=O)[C@@H]1C.O=C(O)C(F)(F)F.O=C(O)C(F)(F)F.O=C(O)C(F)(F)F.O=C(O)C(F)(F)F.O=C(O)C(F)(F)F
MIC [21]: 8 µg/mL
fold change (FC) [22]: 4
fold change (FC) [23]: 4
fold change (FC) [24]: 4
fold change (FC) [25]: 0
fold change (FC) [26]: 0
MIC [27]: 2 µg/mL
MIC [28]: 2 µg/mL
fold change (FC) [29]: 4

CO[C@H]1/C=C/O[C@@]2(C)Oc3c(C)c(O)c4c(O)c(c(/C=N/N5CCN(C)CC5)c(O)c4c3C2=O)NC(=O)/C(C)=C\C=C\[C@H](C)[C@H](O)[C@@H](C)[C@@H](O)[C@@H](C)[C@H](OC(C)=O)[C@@H]1C [RIFAMPIN]
MIC [30]: 4100 µg/mL
